From patent US12234238B2, “Antimicrobial compounds and methods of making and using the same” (BIOVERSYS AG, priority 2017, dated 2025) come the findings set out here.

SMILES strings stand for the structures. Read-outs that look alike come from different tables or passages of the source.

Data set [1] is described as follows: Rat infusion study: clinical signs and IV plasma pharmacokinetics across infusion lengths. The class given is in vivo. Particulars: male Sprague-Dawley rats; for Clinical Signs: 4 mg/kg jugular venous infusion, listed as Compound No. 34, 4 mg/kg; for AUC(0-inf) / Cmax / half-life: male, Sprague-Dawley, rat, plasma, iv, 4 mg/kg, 4 mg/kg IV. The text has this: Many pyrrolocytosines, including Compound No. 34, share an acute clinical syndrome, which manifests in as a Cmax-driven hemodynamic effect and is associated with immediate clinical signs such as labored breathing. Cmax is the peak concentration a molecule reaches in the plasma, in this case directly following intravenous administration, and is expressed generally in micrograms/milliliter. The syndrome is dose-dependent, meaning that the higher the amount of drug given, the more severe the effects. This is generally considered the limiting toxicity for the effected compounds of this class. Importantly, the efficacy for the pyrrolocytosines, including Compound No. 34, is not driven by the Cmax but rather by the AUC (Area-Under-the-plasma-drug-concentration-time-Curve), which is an expression of the total body exposure to the drug and is expressed generally in micrograms*hour/milliliter. In rat studies with several pyrrolocytosines, including Compound No. 34, it has been shown that increasing the length, or duration, of the intravenous administration effectively modulates or eliminates the clinical syndrome, depresses the concentration maximum, results in a short distribution half-life but still affords drug exposures necessary for efficacy.
As an example, a study conducted by PharmOptima under study number 2017-164 with Compound No. 34, compared the clinical signs and plasma drug concentration data across several infusion lengths: 10-minutes, which is the screening length at which the acute syndrome is observed, 1-hour, 2-hour, 3-hour and 24-hour. A total of 15 male Sprague-Dawley rats (275-300 grams) were used in the study, divided evenly across the 5 dosing regimens. The route of drug administration was via jugular venous infusion, using a syringe infusion pump. Compound No. 34 was formulated in phosphate-buffered mannitol, with a starting pH=6.5.
There was a clear decrease in Cmax as infusion length was increased. The intermediate dosing groups still achieved significant AUC, or drug exposures for efficacy, and particularly with the 3 h infusion itis clear that the dose can be increased to move the AUC higher while not approaching the Cmax associated with the severe end of the acute tolerability. The 24 h infusion is particularly compelling. It indicates the concentration can be titrated to achieve steady-state drug levels for efficacy while remaining well below the Cmax associated with clinical signs. […] In the end, this translates into a generous therapeutic window.

The subject of data set [2] is Eschericia coli (E. coli) strain ATCC25922. The data set is described as follows: standard microdilution assay to determine minimum inhibitory concentrations (MICs), E. coli. The class given is cell-based. Particulars: Escherichia coli. The gist of the method:
(§1)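 MICs by broth microdilution in 100 μl final volume following CLSI protocols, with reference strains as quality control. Results presented as +/− relative to a 16 micrograms/mL cutoff.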
Background: Broth dilution looks for growth in wells or tubes with falling amounts of substance.

Data set [3] relates to Staphylococcus aureus (S. aureus) 11540 strain. Nature of the data set: standard microdilution assay to determine minimum inhibitory concentrations (MICs), S. aureus. The data set is classed as cell-based. In a few lines:
as §1

A word on the AUC(0-inf): it is the area under the concentration-time curve extrapolated to infinity. Low readings indicate less exposure, high ones more exposure. By Cmax is commonly meant the highest concentration seen after dosing. One may read the MIC as the smallest concentration in the dilution series that meets the test's criterion for growth inhibition. With `C[C@H](N)CCCc1cc(Cl)c(F)c(-c2cc3cn(-c4ccc([C@@H]5CCC[C@@H](CCSC(=N)N)N5)cc4)c(=O)nc3[nH]2)c1` [Compound 34], the “Clinical Signs” value was “significant labored breathing” in data set [1] (10-min infusion); “minor signs of chewing and licking” in data set [1] (1 h, 2 h and 3 h infusion groups); “no clinical signs and none” in data set [1] (24 h infusion). Besides, the AUC(0-inf) came to 22000 ng·h/mL in data set [1] (10-min infusion); 14400 ng·h/mL in data set [1] (1 h infusion); 14400 ng·h/mL in data set [1] (2 h infusion); 9150 ng·h/mL in data set [1] (3 h infusion); 11000 ng·h/mL in data set [1] (24 h infusion). The Cmax was 23600 ng/mL in data set [1] (10-min infusion); 8890 ng/mL in data set [1] (1 h infusion); 8120 ng/mL in data set [1] (2 h infusion); 3760 ng/mL in data set [1] (3 h infusion); 560 ng/mL in data set [1] (24 h infusion). Besides, the half-life in data set [1] (10-min infusion, read-out: T½ (h)-alpha (converted)) was 1.01 h; in data set [1] (1 h infusion, read-out: T½ (h)-alpha (converted)), 0.91 h; in data set [1] (2 h infusion, read-out: T½ (h)-alpha (converted)) it was 1.02 h; in data set [1] (3 h infusion, read-out: T½ (h)-alpha (converted)), 0.99 h; in data set [1] (24 h infusion, read-out: T½ (h)-alpha (converted)) it was 1.01 h; in data set [1] (first of two cells, infusion group(s) unclear (grid: 10-min), read-out: T½ (h)-terminal (converted)), 15.2 h. Moreover, the half-life in data set [1] (second of two cells, infusion group(s) unclear (grid: 1 h), read-out: T½ (h)-terminal (converted)) was 15.2 h. In addition, the MIC in data set [2] and in data set [3] was no more than 16 µg/mL each time.

Regarding `CN[C@@H]1CC(c2cc3cn(-c4ccc([C@@H]5CCC[C@@H](CCSC(=N)N)N5)cc4)c(=O)nc3[nH]2)N(CCC[C@@H](C)N)C1` (stereo partly drawn) [Compound 66], the MIC in data set [2] and in data set [3] was no more than 16 µg/mL in each case.

As for `C[C@H](O)CNCc1cc(Cl)c(F)c(-c2cc3cn(-c4ccc([C@@H]5CCC[C@@H](CCSC(=N)N)N5)cc4)c(=O)nc3[nH]2)c1` [Compound 30], the MIC in data set [2] and in data set [3] was no more than 16 µg/mL each time.

Turning to `C[C@H](N)CCCc1cc(Cl)c(F)c(-c2cc3cn(-c4ccc([C@@H]5CCC[C@@H](CCO)N5CCCSC(=N)N)cc4)c(=O)nc3[nH]2)c1` [Compound 17], the MIC in data set [2] and in data set [3] was no more than 16 µg/mL in each case.

On to `C[C@H](N)CCCc1cc(Cl)c(F)c(-c2cc3cn(-c4ccc([C@H]5C[C@H](CCSC(=N)N)C(=O)N5C)cc4)c(=O)nc3[nH]2)c1` [Compound 115], for which the MIC in data set [2] was greater than 16 µg/mL; in data set [3], no more than 16 µg/mL.

As for `N=C(N)SCC[C@@H]1CCC[C@@H](c2ccc(-n3cc4cc(-c5cc(CCC[C@@H](N)COc6ccccc6)cc(Cl)c5F)[nH]c4nc3=O)cc2)N1` [Compound 35], the MIC in data set [2] and in data set [3] was no more than 16 µg/mL throughout.

In the case of `C=C[C@H](N)CCCc1cc(Cl)c(F)c(-c2cc3cn(-c4ccc([C@@H]5CCC[C@@H](CCSC(=N)N)N5C)cc4)c(=O)nc3[nH]2)c1` [Compound 50], the MIC in data set [2] and in data set [3] was no more than 16 µg/mL each time.

In the case of `C[C@@H](N)CCCN1C[C@H](Cc2ccccc2)CC1c1cc2cn(-c3ccc([C@@H]4CCC[C@@H](CCSC(=N)N)N4)cc3)c(=O)nc2[nH]1` (stereo partly drawn) [Compound 76], the MIC in data set [2] and in data set [3] was no more than 16 µg/mL throughout.

With `C[C@@H](N)CCc1cc(Cl)c(F)c(-c2cc3cn(-c4ccc([C@@H]5CCC[C@@H](CCSC(=N)N)N5)cc4)c(=O)nc3[nH]2)c1` [Compound 29], the MIC in data set [2] and in data set [3] was no more than 16 µg/mL in each case.

For the compound `CNC(=N)SCC[C@@H]1CCC[C@@H](c2ccc(-n3cc4cc(-c5cc(CCC[C@H](C)N)cc(Cl)c5F)[nH]c4nc3=O)cc2)N1` [Compound 41], the MIC in data set [2] and in data set [3] was no more than 16 µg/mL in each case.

As for `C[C@@H](N)CCCN1C[C@@H](O)CC1c1cc2cn(-c3ccc([C@@H]4CCC[C@@H](CCSC(=N)N)N4)cc3)c(=O)nc2[nH]1` (stereo partly drawn) [Compound 64], the MIC in data set [2] and in data set [3] was no more than 16 µg/mL throughout.

Regarding `C[C@@H](O)CNCc1cc(Cl)c(F)c(-c2cc3cn(-c4ccc([C@@H]5CCC[C@@H](CCSC(=N)N)N5)cc4)c(=O)nc3[nH]2)c1` [Compound 38], the MIC in data set [2] and in data set [3] was no more than 16 µg/mL throughout.

For the compound `C[C@H](N)CCCc1cc(-c2cc3cn(-c4ccc([C@@H]5CCC[C@@H](CCSC(=N)N)N5)cc4)c(=O)nc3[nH]2)cc(C2CCCC2)c1` [Compound 100], the MIC in data set [2] and in data set [3] was no more than 16 µg/mL in each case.

In the case of `C[C@@H]1CNC(c2cc3cn(-c4ccc([C@@H]5CCC[C@@H](CCSC(=N)N)N5)cc4)c(=O)nc3[nH]2)C1` (stereo partly drawn) [Compound 61], the minimum inhibitory concentration (MIC) in data set [2] and in data set [3] was no more than 16 µg/mL in each case.
